Structures can show the parent of a compound that is named as a salt.
Assays:
PI3Kδ = PI3Kδ (Homo sapiens, UniProt O00329); assay: Fluorescent determination of PI3Kinase enzyme activity (HTRF), PI3Kδ; format: biochemical; conditions: for inhibition at 0.1 µM: 100 nM (underlined values: 300 nM)
Source text: (§1) Fluorescent Determination of PI3Kinase Enzyme Activity
(§2) Phosphoinositide 3 kinases (PI3K) belong to a class of Lipid kinases that play a critical role in the regulation of several key cellular processes. The PI3K are capable of phosphorylating the 3-hydroxy position of phosphoinositols thereby generating second messengers involved in downstream signalling events. The homogenous time resolved fluorescence (HTRF) assay allows detection of 3,4,5-triphosphate (PIP3) formed as a result of phosphorylation of phosphotidylinositol 4,5-biphosphate (PIP2) by PI3K isoforms such as α, […], γ or δ.
(§3) PI3K isoform activity for α, β, γ or δ is to be determined using a PI3K human HTRF™ Assay Kit (Millipore, Billerica, Mass.) with modifications. All incubations were carried out at room temperature. Briefly, 0.5 μl of 40× inhibitor (in 100% DMSO) or 100% DMSO were added to each well of a 384-well black plate (Greiner Bio-One, Monroe, N.C.) containing 14.5 μl 1× reaction buffer/PIP2 (10 mM MgCl2, 5 mM DTT, 1.38 μM PIP2) mix with or without enzyme and incubated for 10 min. After the initial incubation, 5 μl/well of 400 μM ATP was added and incubated for an additional 30 minutes. Reaction was terminated by adding 5 μl/well stop solution (Millipore, Billerica, Mass.). Five microliters of detection mix (Millipore, Billerica, Mass.) were then added to each well and was incubated for 6-18 h in the dark. HRTF ratio was measured on a microplate reader (BMG Labtech, Germany) at an excitation wavelength of 337 nm and emission wavelengths of 665 and 620 nm with an integration time of 400 μsec. Data was analyzed using Graphpad Prism (Graphpad software; San Diego Calif.) for IC50 determination).

PI3Kα = PI3Kα (Homo sapiens, UniProt P42336); assay: Fluorescent determination of PI3Kinase enzyme activity (HTRF), PI3Kα; format: biochemical
Source text: as §1, §2, §3

PI3Kγ = PI3Kγ (Homo sapiens, UniProt P48736); assay: Fluorescent determination of PI3Kinase enzyme activity (HTRF), PI3Kγ; format: biochemical; conditions: for inhibition at 0.1 µM: 100 nM (underlined values: 300 nM)
Source text: as §1, §2, §3

PI3Kβ = PI3Kβ (Homo sapiens, UniProt P42338); assay: Fluorescent determination of PI3Kinase enzyme activity (HTRF), PI3Kβ; format: biochemical
Source text: as §1, §2, §3

PI3Kα, sequence (P42336 whole entry): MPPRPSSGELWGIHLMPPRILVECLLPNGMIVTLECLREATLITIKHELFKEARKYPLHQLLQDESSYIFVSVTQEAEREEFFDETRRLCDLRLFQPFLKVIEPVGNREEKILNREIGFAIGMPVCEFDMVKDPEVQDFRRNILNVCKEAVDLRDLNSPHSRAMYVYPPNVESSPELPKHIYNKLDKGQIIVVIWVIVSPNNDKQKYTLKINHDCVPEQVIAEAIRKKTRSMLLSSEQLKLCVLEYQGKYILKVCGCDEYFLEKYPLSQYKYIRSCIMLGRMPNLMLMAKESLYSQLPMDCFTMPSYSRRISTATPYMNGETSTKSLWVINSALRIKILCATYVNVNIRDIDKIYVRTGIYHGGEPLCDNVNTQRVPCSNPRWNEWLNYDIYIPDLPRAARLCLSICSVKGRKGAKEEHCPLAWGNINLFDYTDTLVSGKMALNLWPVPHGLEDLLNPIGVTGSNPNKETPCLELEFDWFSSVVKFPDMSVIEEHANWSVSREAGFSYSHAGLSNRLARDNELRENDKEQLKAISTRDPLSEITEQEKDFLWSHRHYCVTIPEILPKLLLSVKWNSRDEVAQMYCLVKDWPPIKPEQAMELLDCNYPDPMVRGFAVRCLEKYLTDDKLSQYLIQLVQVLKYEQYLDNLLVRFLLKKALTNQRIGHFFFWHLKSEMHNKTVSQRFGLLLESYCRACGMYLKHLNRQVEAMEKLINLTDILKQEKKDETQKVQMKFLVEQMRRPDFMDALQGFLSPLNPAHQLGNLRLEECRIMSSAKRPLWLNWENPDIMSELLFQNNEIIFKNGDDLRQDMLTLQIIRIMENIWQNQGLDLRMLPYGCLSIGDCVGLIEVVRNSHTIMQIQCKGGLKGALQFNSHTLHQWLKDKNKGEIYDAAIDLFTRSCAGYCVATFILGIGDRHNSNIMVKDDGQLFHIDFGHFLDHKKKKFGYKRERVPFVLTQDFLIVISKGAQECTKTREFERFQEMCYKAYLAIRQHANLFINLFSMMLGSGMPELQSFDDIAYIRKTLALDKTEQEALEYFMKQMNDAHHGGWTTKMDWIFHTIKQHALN
PI3Kα, sequence (P27986 whole entry partner): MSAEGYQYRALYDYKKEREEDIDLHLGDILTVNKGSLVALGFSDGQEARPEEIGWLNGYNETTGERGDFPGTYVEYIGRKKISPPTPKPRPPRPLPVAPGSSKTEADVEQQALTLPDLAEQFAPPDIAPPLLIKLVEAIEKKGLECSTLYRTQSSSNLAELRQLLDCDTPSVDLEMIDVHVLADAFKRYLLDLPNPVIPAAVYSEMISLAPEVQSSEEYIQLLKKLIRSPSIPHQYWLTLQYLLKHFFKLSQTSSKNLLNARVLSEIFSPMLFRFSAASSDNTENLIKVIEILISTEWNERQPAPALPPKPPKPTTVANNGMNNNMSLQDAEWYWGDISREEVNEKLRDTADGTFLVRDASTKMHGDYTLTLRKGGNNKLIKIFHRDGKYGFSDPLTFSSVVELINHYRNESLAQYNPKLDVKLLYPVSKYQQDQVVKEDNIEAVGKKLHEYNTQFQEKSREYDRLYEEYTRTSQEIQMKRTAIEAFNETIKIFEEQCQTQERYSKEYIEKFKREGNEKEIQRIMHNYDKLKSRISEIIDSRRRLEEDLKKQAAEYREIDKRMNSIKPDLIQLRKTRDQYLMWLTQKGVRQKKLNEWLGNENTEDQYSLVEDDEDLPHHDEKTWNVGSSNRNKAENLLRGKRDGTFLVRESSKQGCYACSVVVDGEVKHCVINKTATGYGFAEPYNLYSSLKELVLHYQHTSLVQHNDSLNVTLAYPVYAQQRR
PI3Kβ, sequence (P42338 whole entry): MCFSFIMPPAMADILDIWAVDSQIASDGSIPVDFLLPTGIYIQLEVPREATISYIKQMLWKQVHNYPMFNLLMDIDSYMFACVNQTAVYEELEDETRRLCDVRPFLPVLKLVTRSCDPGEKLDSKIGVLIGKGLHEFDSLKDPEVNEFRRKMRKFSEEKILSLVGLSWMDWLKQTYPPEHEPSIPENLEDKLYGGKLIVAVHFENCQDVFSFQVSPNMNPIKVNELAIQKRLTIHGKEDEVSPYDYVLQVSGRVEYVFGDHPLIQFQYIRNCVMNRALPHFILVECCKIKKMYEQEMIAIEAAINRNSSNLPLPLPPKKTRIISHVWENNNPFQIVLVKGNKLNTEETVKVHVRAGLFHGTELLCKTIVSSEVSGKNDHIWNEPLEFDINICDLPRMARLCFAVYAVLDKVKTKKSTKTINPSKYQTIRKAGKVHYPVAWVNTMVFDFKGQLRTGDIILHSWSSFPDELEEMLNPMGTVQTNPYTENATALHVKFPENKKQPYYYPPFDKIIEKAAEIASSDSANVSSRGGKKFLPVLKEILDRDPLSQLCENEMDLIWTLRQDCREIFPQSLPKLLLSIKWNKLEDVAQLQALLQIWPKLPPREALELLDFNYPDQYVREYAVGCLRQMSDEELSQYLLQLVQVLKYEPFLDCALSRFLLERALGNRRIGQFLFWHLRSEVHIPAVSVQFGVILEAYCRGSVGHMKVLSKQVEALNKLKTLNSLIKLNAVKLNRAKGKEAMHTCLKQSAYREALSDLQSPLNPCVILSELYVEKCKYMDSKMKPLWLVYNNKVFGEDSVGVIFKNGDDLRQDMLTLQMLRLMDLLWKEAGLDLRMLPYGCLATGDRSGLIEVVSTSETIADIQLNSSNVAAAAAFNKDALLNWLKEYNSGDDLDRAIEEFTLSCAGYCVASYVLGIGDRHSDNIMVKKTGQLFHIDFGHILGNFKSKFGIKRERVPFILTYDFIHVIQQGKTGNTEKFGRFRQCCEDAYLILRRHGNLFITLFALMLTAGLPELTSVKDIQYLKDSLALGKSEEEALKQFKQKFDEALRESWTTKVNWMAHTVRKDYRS
PI3Kβ, sequence (P27986 whole entry partner): as the sequence (P27986 whole entry partner) above
PI3Kδ, sequence (O00329 whole entry): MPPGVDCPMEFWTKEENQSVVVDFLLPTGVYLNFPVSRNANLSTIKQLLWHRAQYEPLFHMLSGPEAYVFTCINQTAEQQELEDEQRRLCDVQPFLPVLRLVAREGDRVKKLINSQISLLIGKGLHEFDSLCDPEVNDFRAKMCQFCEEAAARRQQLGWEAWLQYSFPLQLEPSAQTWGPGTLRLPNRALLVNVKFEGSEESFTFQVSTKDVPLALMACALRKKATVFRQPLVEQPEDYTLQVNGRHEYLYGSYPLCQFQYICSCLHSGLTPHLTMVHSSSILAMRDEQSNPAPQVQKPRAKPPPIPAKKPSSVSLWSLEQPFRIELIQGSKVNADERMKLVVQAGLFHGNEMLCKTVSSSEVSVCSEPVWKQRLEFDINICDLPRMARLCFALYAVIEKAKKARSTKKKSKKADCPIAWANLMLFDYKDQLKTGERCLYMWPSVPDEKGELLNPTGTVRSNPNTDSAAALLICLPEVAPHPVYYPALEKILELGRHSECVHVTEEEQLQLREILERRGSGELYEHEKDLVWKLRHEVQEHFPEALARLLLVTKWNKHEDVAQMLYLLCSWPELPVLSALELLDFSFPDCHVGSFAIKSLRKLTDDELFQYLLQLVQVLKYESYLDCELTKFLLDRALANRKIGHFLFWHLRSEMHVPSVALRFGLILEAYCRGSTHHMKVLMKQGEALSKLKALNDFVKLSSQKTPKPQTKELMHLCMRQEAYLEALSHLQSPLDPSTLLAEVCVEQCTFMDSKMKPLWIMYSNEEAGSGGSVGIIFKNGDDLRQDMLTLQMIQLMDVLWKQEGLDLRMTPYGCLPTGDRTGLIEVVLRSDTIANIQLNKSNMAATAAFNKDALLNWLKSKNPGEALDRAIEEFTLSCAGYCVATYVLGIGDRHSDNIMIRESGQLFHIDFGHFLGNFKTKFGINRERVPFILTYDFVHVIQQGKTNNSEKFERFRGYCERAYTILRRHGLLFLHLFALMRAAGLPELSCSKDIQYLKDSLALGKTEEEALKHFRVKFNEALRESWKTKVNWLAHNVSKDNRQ
PI3Kδ, sequence (P27986 whole entry partner): as the sequence (P27986 whole entry partner) above
PI3Kγ, sequence (P48736 whole entry): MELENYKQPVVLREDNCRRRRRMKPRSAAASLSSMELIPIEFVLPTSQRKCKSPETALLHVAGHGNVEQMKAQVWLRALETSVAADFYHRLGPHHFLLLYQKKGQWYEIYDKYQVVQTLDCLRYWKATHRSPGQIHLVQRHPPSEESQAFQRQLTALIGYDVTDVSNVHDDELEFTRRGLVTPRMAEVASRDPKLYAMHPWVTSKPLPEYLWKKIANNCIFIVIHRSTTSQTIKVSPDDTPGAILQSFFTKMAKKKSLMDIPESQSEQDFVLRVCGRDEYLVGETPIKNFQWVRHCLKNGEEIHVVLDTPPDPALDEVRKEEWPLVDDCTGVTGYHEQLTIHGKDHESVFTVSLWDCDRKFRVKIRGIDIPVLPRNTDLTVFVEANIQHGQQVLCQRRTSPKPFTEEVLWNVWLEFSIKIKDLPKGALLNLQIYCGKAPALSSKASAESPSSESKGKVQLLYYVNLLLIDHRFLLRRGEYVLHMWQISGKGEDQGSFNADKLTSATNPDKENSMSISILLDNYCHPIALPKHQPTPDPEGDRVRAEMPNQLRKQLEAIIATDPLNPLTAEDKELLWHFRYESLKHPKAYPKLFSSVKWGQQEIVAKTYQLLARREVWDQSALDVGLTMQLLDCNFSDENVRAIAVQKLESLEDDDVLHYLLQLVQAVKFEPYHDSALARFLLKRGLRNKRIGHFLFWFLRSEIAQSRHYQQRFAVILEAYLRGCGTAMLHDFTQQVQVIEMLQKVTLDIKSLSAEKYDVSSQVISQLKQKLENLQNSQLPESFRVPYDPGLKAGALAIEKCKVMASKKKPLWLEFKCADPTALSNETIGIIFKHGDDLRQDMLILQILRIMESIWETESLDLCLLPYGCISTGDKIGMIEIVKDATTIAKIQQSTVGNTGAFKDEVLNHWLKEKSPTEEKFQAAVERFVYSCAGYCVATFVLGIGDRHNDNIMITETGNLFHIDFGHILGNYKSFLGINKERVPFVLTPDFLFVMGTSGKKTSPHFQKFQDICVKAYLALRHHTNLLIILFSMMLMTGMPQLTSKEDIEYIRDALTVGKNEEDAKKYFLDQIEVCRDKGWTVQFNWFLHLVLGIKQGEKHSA

Row | Compound | melting point [°C] | inhibition at 0.1 µM (PI3Kδ) [%] | inhibition at 1 µM (PI3Kα) [%] | inhibition at 0.1 µM (PI3Kγ) [%] | inhibition at 1 µM (PI3Kβ) [%] | IC50 (PI3Kδ) [µM] | IC50 (PI3Kγ) [µM]
1 | CC(C)Oc1ccc(-c2nn(C(C)c3cc4cccc(F)c4c(=O)n3-c3ccccc3)c3ncnc(N)c23)cc1F (centres unmarked) (as salt: potassium) [Example 2, 3-(1-(4-amino-3-(3-fluoro-4-isopropoxyphenyl)-1H-pyrazolo[3,4-d]pyrimidin-1-yl)ethyl)-8-fluoro-2-phenylisoquinolin-1(2H)-one] | 264 to 266 |  |  |  |  |  | 
2 | CC(C)Oc1ccc(-c2nn(C(C)c3nc4ccc(F)cc4c(=O)n3-c3ccccc3)c3ncnc(N)c23)cc1F (centres unmarked) (as salt: potassium) [Example 4, 2-(1-(4-amino-3-(3-fluoro-4-isopropoxyphenyl)-1H-pyrazolo[3,4-d]pyrimidin-1-yl)ethyl)-6-fluoro-3-phenylquinazolin-4(3H)-one] | 215 to 218 |  |  |  |  |  | 
3 | CC(C)Oc1ccc(-c2nn(C(C)c3nc4ccccc4c(=O)n3-c3ccccc3)c3ncnc(N)c23)cc1F (centres unmarked) (as salt: potassium) [Example 6, 2-(1-(4-amino-3-(3-fluoro-4-isopropoxyphenyl)-1H-pyrazolo[3,4-d]pyrimidin-1-yl)ethyl)-3-phenylquinazolin-4(3H)-one] | 236 to 239 |  |  |  |  |  | 
4 | CC(c1cc2cccc(Cl)c2c(=O)n1-c1ccccc1)n1nc(-c2ccc(OC(F)F)c(F)c2)c2c(N)ncnc21 (centres unmarked) (as salt: potassium) [Example 17, 3-(1-(4-amino-3-(4-(difluoromethoxy)-3-fluorophenyl)-1H-pyrazolo[3,4-d]pyrimidin-1-yl)ethyl)-8-chloro-2-phenylisoquinolin-1(2H)-one] | 160 to 162 |  |  |  |  |  | 
5 | CC(C)Oc1ccc(-c2nn(C(C)c3cc4cccc(Cl)c4c(=O)n3-c3ccccc3)c3ncnc(N)c23)cc1F (centres unmarked) [Example 1, 3-(1-(4-amino-3-(3-fluoro-4-isopropoxyphenyl)-1H-pyrazolo[3,4-d]pyrimidin-1-yl)ethyl)-8-chloro-2-phenylisoquinolin-1(2H)-one] | 164 to 166 | 20 to 40 | 0 to 10 | 0 to 20 | 0 to 10 |  | 
6 | CC(C)Oc1ccc(-c2nn([C@H](C)c3cc4ccccc4c(=O)n3-c3ccccc3)c3ncnc(N)c23)cc1F [Example 5b, (−)-3-(1-(4-amino-3-(3-fluoro-4-isopropoxyphenyl)-1H-pyrazolo[3,4-d]pyrimidin-1-yl)ethyl)-2-phenylisoquinolin-1(2H)-one] | 232 to 235 | 40 to 60 | 0 to 10 | 0 to 20 | 60 to 80 |  | 
7 | CC(C)Oc1ccc(-c2nn([C@H](C)c3nc4ccccc4c(=O)n3-c3ccccc3)c3ncnc(N)c23)cc1F [Example 6b, (−)-2-(1-(4-amino-3-(3-fluoro-4-isopropoxyphenyl)-1H-pyrazolo[3,4-d]pyrimidin-1-yl)ethyl)-3-phenylquinazolin-4(3H)-one] | 192 to 195 | 20 to 40 | 0 to 10 | 0 to 20 | 20 to 40 |  | 
8 | C[C@H](c1cc2ccccc2c(=O)n1-c1ccccc1)n1nc(-c2ccc(O)c(F)c2)c2c(N)ncnc21 [Example 7b, (−)-3-(1-(4-amino-3-(3-fluoro-4-hydroxyphenyl)-1H-pyrazolo[3,4-d]pyrimidin-1-yl)ethyl)-2-phenylisoquinolin-1(2H)-one] | 230 to 232 | 40 to 60 | 0 to 10 | 20 to 40 | 20 to 40 |  | 
9 | CC(c1nc2ccccc2c(=O)n1-c1ccccc1)n1nc(-c2ccc(O)c(F)c2)c2c(N)ncnc21 (centres unmarked) [Example 8, 2-(1-(4-amino-3-(3-fluoro-4-hydroxyphenyl)-1H-pyrazolo[3,4-d]pyrimidin-1-yl)ethyl)-3-phenylquinazolin-4(3H)-one] | 230 to 233 | 20 to 40 | 0 to 10 | 0 to 20 | 20 to 40 |  | 
10 | COc1ccc(-c2nn(C(C)c3cc4ccccc4c(=O)n3-c3ccccc3)c3ncnc(N)c23)cc1NS(C)(=O)=O (centres unmarked) [Example 9, N-(5-(4-amino-1-(1-(1-oxo-2-phenyl-1,2-dihydroisoquinolin-3-yl)ethyl)-1H-pyrazolo[3,4-d]pyrimidin-3-yl)-2-methoxyphenyl)methanesulfonamide] | 260 to 263 | 40 to 60 | 20 to 40 | 20 to 40 | 40 to 60 |  | 
11 | COc1ccc(-c2nn([C@H](C)c3cc4ccccc4c(=O)n3-c3ccccc3)c3ncnc(N)c23)cc1NS(C)(=O)=O [Example 9b, (−)—N-(5-(4-amino-1-(1-(1-oxo-2-phenyl-1,2-dihydroisoquinolin-3-yl)ethyl)-1H-pyrazolo[3,4-d]pyrimidin-3-yl)-2-methoxyphenyl)methanesulfonamide] | 158 to 162 | 40 to 60 | 0 to 10 | 0 to 20 | 10 to 20 |  | 
12 | CC(c1nc2ccc(F)cc2c(=O)n1-c1ccccc1)n1nc(-c2ccc(O)c(F)c2)c2c(N)ncnc21 (centres unmarked) [Example 13, 2-(1-(4-amino-3-(3-fluoro-4-hydroxyphenyl)-1H-pyrazolo[3,4-d]pyrimidin-1-yl)ethyl)-6-fluoro-3-phenylquinazolin-4(3H)-one] | 231 to 232 | 20 to 40 | 0 to 10 | 20 to 40 | 10 to 20 |  | 
13 | COc1ccc(-c2nn(C(C)c3cc4cccc(Cl)c4c(=O)n3-c3ccccc3)c3ncnc(N)c23)cc1NS(C)(=O)=O (centres unmarked) [Example 20, N-(5-(4-amino-1-(1-(8-chloro-1-oxo-2-phenyl-1,2-dihydroisoquinolin-3-yl)ethyl)-1H-pyrazolo[3,4-d]pyrimidin-3-yl)-2-methoxyphenyl)methanesulfonamide] |  | 80 to 100 | 40 to 60 | 60 to 80 | 20 to 40 |  | 
14 | COc1ccc(-c2nn([C@@H](C)c3cc4cccc(Cl)c4c(=O)n3-c3ccccc3)c3ncnc(N)c23)cc1NS(C)(=O)=O [Example 20a, (+)—N-(5-(4-amino-1-(1-(8-chloro-1-oxo-2-phenyl-1,2-dihydroisoquinolin-3-yl)ethyl)-1H-pyrazolo[3,4-d]pyrimidin-3-yl)-2-methoxyphenyl)methanesulfonamide] |  | 60 to 80 | 0 to 10 | 20 to 40 | 10 to 20 | 0.0764 | 0.142
15 | Cc1n[nH]c2cc(-c3nn([C@@H](C)c4cc5cccc(Cl)c5c(=O)n4-c4ccccc4)c4ncnc(N)c34)ccc12 [Example 21a, (+)-3-(1-(4-amino-3-(3-methyl-1H-indazol-6-yl)-1H-pyrazolo[3,4-d]pyrimidin-1-yl)ethyl)-8-chloro-2-phenylisoquinolin-1(2H)-one] |  | 80 to 100 | 0 to 10 | 60 to 80 | 0 to 10 |  | 
16 | CCC(c1nc2ccccc2c(=O)n1-c1ccccc1)n1nc(-c2ccc(OC(C)C)c(F)c2)c2c(N)ncnc21 (centres unmarked) [Example 22, 2-{1-[4-Amino-3-(3-fluoro-4-isopropoxy-phenyl)-pyrazolo[3,4-d]pyrimidin-1-yl]-propyl}-3-phenyl-3H-quinazolin-4-one] | 261 to 263 |  |  |  |  |  | 

From patent publication US11352359B2, “PI3K protein kinase inhibitors” (Rhizen Pharmaceuticals SA, priority 2013, dated 2022)
